Source: patent publication US10994015B2, “EGFR proteolysis targeting chimeric molecules and associated methods of use” (Arvinas Operations, Inc., priority 2016, dated 2021)

What was measured:
EGFR Exon 20 ASV (HeLa*) = EGFR Exon 20 ASV (HeLa*) (Homo sapiens (Human), UniProt P00533, DUP767-769); assay: EGFR protein degradation assay (Western blot); assay type: cell-based; details: 72 hours, 300 nM to 10 nM
[1] = target: EGFR-wt (MDA-MB-231 or MCF7 or A549 or OVCAR8) (Homo sapiens (Human), UniProt P00533); assay: EGFR protein degradation assay (Western blot); assay type: cell-based; details: 72 hours, 300 nM to 10 nM
EGFR-wt (MDA-MB-231 or MCF7 or A549 or OVCAR8), sequence (P00533 25-1210): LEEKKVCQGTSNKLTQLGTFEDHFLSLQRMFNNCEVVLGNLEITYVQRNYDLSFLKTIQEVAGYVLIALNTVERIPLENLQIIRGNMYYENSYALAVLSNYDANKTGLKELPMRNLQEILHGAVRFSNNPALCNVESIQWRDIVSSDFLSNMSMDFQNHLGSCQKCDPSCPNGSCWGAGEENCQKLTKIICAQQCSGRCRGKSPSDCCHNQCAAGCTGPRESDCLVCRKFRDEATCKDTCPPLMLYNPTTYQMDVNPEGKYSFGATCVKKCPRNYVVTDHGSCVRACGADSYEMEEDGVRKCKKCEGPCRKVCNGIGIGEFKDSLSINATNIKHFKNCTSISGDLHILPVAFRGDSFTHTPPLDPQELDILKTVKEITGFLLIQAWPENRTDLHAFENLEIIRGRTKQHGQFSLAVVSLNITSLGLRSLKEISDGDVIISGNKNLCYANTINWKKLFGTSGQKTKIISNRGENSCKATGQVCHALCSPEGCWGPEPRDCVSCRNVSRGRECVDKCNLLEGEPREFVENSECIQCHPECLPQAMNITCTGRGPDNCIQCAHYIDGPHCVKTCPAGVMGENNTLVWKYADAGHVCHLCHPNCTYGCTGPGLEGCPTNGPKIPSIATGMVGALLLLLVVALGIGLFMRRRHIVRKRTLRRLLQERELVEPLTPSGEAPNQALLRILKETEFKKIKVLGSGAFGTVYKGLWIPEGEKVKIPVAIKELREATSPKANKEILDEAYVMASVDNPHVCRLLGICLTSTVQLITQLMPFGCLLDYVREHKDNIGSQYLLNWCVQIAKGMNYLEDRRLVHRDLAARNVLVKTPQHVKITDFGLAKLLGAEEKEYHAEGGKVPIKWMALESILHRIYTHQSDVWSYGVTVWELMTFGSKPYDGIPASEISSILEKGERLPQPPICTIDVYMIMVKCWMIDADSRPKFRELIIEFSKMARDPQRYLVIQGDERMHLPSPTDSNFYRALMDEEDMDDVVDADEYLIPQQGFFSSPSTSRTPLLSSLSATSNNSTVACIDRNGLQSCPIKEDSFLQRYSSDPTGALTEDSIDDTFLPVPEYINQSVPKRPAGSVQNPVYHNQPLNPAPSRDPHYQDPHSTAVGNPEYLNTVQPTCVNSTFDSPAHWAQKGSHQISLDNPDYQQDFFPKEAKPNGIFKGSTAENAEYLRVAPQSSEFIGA
In short: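 Cells carrying the relevant EGFR form were plated at 300,000 per well in 6-well plates and left overnight to attach. For harvest, cells were rinsed once in ice-cold PBS and lysed in 400 μl lysis buffer containing protease inhibitors. Lysates were cleared at 10 000 rpm for 10 minutes and their protein content measured by BCA. Then 10 μg per sample was separated by SDS/PAGE at 165V for 2 hours, and EGFR was detected by ECL on a Chemidoc.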

EGFR L858R/T790M/C797S = EGFR L858R/T790M/C797S (Homo sapiens (Human), UniProt P00533, C797S/L858R/T790M); assay: TR-FRET assay for ERBB kinases; assay type: biochemical; details: geometric mean if measured more than once
In short: (§1)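 Phosphotyrosine on fluorescein poly-GluTyr was detected by Tb-pY20 antibody after EDTA quench, reading emission at 520 and 490 nm. The kinase was exposed to compound for 10 min before an ATP-containing substrate mix (3 mM ATP as added) was introduced. Turnover lasted 10 min at room temperature.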

EGFR WT = EGFR WT (Homo sapiens (Human), UniProt P00533); assay: TR-FRET assay for ERBB kinases; assay type: biochemical; details: geometric mean if measured more than once
EGFR WT, sequence (P00533 25-1210): as above
In short: as §1

EGFR L858R/T790M = EGFR L858R/T790M (Homo sapiens (Human), UniProt P00533, L858R/T790M); assay: TR-FRET assay for ERBB kinases; assay type: biochemical; details: geometric mean if measured more than once
In short: as §1

EGFR Exon20NPG = EGFR Exon20NPG (Homo sapiens (Human), UniProt P00533, INS770NPG); assay: TR-FRET assay for ERBB kinases; assay type: biochemical; details: geometric mean if measured more than once
EGFR Exon20NPG, sequence (P00533 other isoform, or with tags, fused parts or gaps del 1-694/ins NPG behind 770 limits assumed): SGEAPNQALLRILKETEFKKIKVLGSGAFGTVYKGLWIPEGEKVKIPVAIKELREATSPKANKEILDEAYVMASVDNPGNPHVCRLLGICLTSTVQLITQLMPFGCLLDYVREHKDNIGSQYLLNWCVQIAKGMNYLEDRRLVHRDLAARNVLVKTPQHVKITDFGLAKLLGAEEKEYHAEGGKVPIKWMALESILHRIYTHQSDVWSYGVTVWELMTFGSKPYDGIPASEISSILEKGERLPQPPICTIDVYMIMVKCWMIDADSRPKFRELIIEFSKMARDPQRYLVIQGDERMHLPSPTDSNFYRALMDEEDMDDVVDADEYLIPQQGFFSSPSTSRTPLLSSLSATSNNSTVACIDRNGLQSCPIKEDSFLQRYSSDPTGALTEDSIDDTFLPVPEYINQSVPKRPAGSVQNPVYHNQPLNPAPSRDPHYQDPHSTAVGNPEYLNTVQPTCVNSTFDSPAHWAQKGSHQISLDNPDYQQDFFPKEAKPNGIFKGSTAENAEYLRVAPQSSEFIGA
In short: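 Compounds pre-incubated 10 min with kinase in HEPES pH 7.5 buffer (MgCl2, DTT, Pluronic), then reaction started with substrate mix (3 mM ATP, 30 µM fluorescein-poly-GluTyr, stock levels) for 10 min at room temperature. EDTA-quenched, detected by Tb-pY20 antibody TR-FRET (520/490 nm emission).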

[2] = target: EGFR L858R/T790M/C797S triple mutant (H520*) (Homo sapiens (Human), UniProt P00533, C797S/L858R/T790M); assay: EGFR protein degradation assay (Western blot); assay type: cell-based; details: 72 hours, 300 nM to 10 nM
In short: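 EGFR loss in the triple-mutant line measured by immunoblot: clarified lysates normalised by BCA, run on 4-12% Bis-Tris gels, blotted to PVDF, probed with HRP anti-rabbit secondary. Before lysis, cells were dosed from 1, 0.3, 0.1, 0.03 and 0.01 mM DMSO stocks (not final concentrations) after overnight culture at 37° C.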

[3] = target: EGFR L858R/T790M double mutant (H1975) (Homo sapiens (Human), UniProt P00533, L858R/T790M); assay: EGFR protein degradation assay (Western blot); assay type: cell-based; details: 72 hours, 300 nM to 10 nM
In short: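 Cells carrying the relevant EGFR form were plated at 300,000 cells per well in 6-well plates and left to attach overnight. After washing in ice-cold PBS, cells were lysed in 400 μl lysis buffer with protease inhibitors, scraped, and clarified at 10 000 rpm for 10 minutes. EGFR levels were then assessed by Western blot with tubulin as loading control.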

EGFR Exon 20 ASV (HeLa*), sequence (P00533 other isoform, or with tags, fused parts or gaps dup 767-769): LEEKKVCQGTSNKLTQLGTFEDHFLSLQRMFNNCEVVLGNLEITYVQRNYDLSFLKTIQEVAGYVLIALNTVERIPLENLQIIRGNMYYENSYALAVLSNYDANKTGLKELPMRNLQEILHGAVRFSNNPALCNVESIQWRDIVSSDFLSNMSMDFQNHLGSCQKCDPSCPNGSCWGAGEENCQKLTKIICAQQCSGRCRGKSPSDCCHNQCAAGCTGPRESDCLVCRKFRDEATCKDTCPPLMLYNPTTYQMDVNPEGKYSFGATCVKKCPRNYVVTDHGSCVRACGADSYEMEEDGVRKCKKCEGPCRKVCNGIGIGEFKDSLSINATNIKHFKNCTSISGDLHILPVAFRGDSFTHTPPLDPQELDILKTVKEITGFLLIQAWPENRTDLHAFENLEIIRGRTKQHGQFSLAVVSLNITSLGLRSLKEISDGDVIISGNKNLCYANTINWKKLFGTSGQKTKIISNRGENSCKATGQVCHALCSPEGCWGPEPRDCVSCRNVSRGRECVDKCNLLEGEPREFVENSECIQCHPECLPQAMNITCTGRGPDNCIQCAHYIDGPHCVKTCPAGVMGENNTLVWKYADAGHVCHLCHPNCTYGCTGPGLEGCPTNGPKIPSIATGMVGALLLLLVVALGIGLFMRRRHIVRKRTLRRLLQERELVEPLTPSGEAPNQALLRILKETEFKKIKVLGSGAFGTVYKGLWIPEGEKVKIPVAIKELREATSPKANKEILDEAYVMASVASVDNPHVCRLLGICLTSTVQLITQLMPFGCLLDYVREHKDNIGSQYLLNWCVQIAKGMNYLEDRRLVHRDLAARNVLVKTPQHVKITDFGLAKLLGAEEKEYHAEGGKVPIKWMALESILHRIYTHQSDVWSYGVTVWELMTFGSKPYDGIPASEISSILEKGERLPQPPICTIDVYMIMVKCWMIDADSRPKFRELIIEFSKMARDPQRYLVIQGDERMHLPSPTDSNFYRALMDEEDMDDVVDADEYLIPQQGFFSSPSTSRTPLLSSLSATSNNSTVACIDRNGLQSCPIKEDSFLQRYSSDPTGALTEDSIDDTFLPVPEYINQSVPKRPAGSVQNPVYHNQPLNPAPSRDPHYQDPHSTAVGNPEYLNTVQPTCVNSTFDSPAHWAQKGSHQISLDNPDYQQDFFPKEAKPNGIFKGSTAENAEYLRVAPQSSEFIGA

Row | SMILES | EGFR protein remaining, EGFR Exon 20 ASV (EGFR Exon 20 ASV (HeLa*)) | EGFR protein remaining, EGFR-wt [1] | IC50 (EGFR L858R/T790M/C797S) | IC50 (EGFR WT) | IC50 (EGFR L858R/T790M) | IC50 (EGFR Exon20NPG) | EGFR protein remaining, EGFR L858R/T790M/C797S triple mutant [2] | EGFR protein remaining, EGFR L858R/T790M double mutant [3]
1 | Cc1ncsc1-c1ccc(CNC(=O)[C@@H]2C[C@@H](O)CN2C(=O)[C@@H](NC(=O)COCCOCCOCCOc2ccc(-c3cc4c(NCc5ccccc5Cl)ncnc4[nH]3)cc2)C(C)(C)C)cc1 [Example 14, (2S,4R)-1-((S)-2-(tert-butyl)-14-(4-(4-((2-chlorobenzyl)amino)-7H-pyrrolo[2,3-d]pyrimidin-6-yl)phenoxy)-4-oxo-6,9,12-trioxa-3-azatetradecanoyl)-4-hydroxy-N-(4-(4-methylthiazol-5-yl)benzyl)pyrrolidine-2-carboxamide] | C (>80% EGFR protein remaining after 72 hours of incubation with the test compound at a concentration of 300 nM) | C (>80% EGFR protein remaining after 72 hours of incubation with the test compound at a concentration of 300 nM) | – | – | – | – | – | –
2 | O=C1CCC(N2C(=O)c3ccc(OCCOCCOCCN4CCN(Cc5ccc(-c6cc7c(NCc8ccccc8Cl)ncnc7[nH]6)cc5)CC4)cc3C2=O)C(=O)N1 (centres unmarked) [Example 17, 5-(2-(2-(2-(4-(4-(4-((2-chlorobenzyl)amino)-7H-pyrrolo[2,3-d]pyrimidin-6-yl)benzyl)piperazin-1-yl)ethoxy)ethoxy)ethoxy)-2-(2,6-dioxopiperidin-3-yl)isoindoline-1,3-dione] | C (>80% EGFR protein remaining after 72 hours of incubation with the test compound at a concentration of 300 nM) | C (>80% EGFR protein remaining after 72 hours of incubation with the test compound at a concentration of 300 nM) | 4900 nM | 220 nM | 7200 nM | 190 nM | – | –
3 | O=C1CCC(N2C(=O)c3ccc(OCCOCCOCCOCCOCCN4CCN(Cc5ccc(C6Cc7c(NCc8ccccc8Cl)ncnc7N6)cc5)CC4)cc3C2=O)C(=O)N1 (centres unmarked) [compound 104] | C (>80% EGFR protein remaining after 72 hours of incubation with the test compound at a concentration of 300 nM) | C (>80% EGFR protein remaining after 72 hours of incubation with the test compound at a concentration of 300 nM) | 8200 nM | 590 nM | 12000 nM | 510 nM | – | –
4 | Cc1ncsc1-c1ccc(CNC(=O)[C@@H]2C[C@@H](O)CN2C(=O)[C@H](C(C)C)N2Cc3ccccc3C2=O)c(OCCN2CCN(Cc3ccc(-c4cc5c(NCc6ccccc6Cl)ncnc5[nH]4)cc3)CC2)c1 [Example 106, (2S,4R)—N-(2-(2-(4-(4-(4-((2-chlorobenzyl)amino)-7H-pyrrolo[2,3-d]pyrimidin-6-yl)benzyl)piperazin-1-yl)ethoxy)-4-(4-methylthiazol-5-yl)benzyl)-4-hydroxy-1-((S)-3-methyl-2-(1-oxoisoindolin-2-yl)butanoyl)pyrrolidine-2-carboxamide] | C (>80% EGFR protein remaining after 72 hours of incubation with the test compound at a concentration of 300 nM) | C (>80% EGFR protein remaining after 72 hours of incubation with the test compound at a concentration of 300 nM) | 5200 nM | 470 nM | 4900 nM | 1900 nM | – | –
5 | Cc1ncsc1-c1ccc([C@H](C)NC(=O)[C@H]2C[C@H](O)CN2C(=O)[C@@H](NC(=O)COCCOCCOCCOCCOCCOCC#Cc2cccc3c2C(=O)N([C@@H](C(=O)Nc2nccs2)c2cc(F)ccc2O)C3)C(C)(C)C)cc1 [compound 275] | – | C (>80% EGFR protein remaining after 72 hours of incubation with the test compound at a concentration of 300 nM) | 69 nM | 660 nM | 880 nM | 9100 nM | B (≤80% and >50% EGFR protein remaining after 72 hours of incubation with the test compound at a concentration between 300 nM and 10 nM) | C (>80% EGFR protein remaining after 72 hours of incubation with the test compound at a concentration of 300 nM)
6 | O=C1CCC(N2C(=O)c3ccc(OCCOCCN4CCN(Cc5ccc(-c6cc7c(NCc8ccccc8Cl)ncnc7[nH]6)cc5)CC4)cc3C2=O)C(=O)N1 (centres unmarked) [Example 102, 5-(2-(2-(4-(4-(4-((2-chlorobenzyl)amino)-7H-pyrrolo[2,3-d]pyrimidin-6-yl)benzyl)piperazin-1-yl)ethoxy)ethoxy)-2-(2,6-dioxopiperidin-3-yl)isoindoline-1,3-dione] | C (>80% EGFR protein remaining after 72 hours of incubation with the test compound at a concentration of 300 nM) | C (>80% EGFR protein remaining after 72 hours of incubation with the test compound at a concentration of 300 nM) | – | – | – | – | – | –
7 | Cc1ncsc1-c1ccc(CNC(=O)[C@@H]2C[C@@H](O)CN2C(=O)[C@H](C(C)C)N2Cc3ccccc3C2=O)c(OCCOCCOCCN2CCN(Cc3ccc(-c4cc5c(NCc6ccccc6Cl)ncnc5[nH]4)cc3)CC2)c1 [Example 108, (2S,4R)—N-(2-(2-(2-(2-(4-(4-(4-((2-Chlorobenzyl)amino)-7H-pyrrolo[2,3-d]pyrimidin-6-yl)benzyl)piperazin-1-yl)ethoxy)ethoxy)ethoxy)-4-(4-methylthiazol-5-yl)benzyl)-4-hydroxy-1-((S)-3-methyl-2-(1-oxoisoindolin-2-yl)butanoyl)pyrrolidine-2-carboxamide] | C (>80% EGFR protein remaining after 72 hours of incubation with the test compound at a concentration of 300 nM) | C (>80% EGFR protein remaining after 72 hours of incubation with the test compound at a concentration of 300 nM) | 7800 nM | 770 nM | 10000 nM | 980 nM | – | –
8 | O=C1CCC(N2C(=O)c3ccc(OCCOCCOCCOCCOCCOCCN4CCN(Cc5ccc(C6Cc7c(NCc8ccccc8Cl)ncnc7N6)cc5)CC4)cc3C2=O)C(=O)N1 (centres unmarked) [compound 105] | C (>80% EGFR protein remaining after 72 hours of incubation with the test compound at a concentration of 300 nM) | C (>80% EGFR protein remaining after 72 hours of incubation with the test compound at a concentration of 300 nM) | 24000 nM | 970 nM | > 30000 nM | 820 nM | – | –
9 | Cc1ncsc1-c1ccc(CNC(=O)[C@@H]2C[C@@H](O)CN2C(=O)[C@H](C(C)C)N2Cc3ccccc3C2=O)c(OCCOCCOCCOCCOCCN2CCN(Cc3ccc(-c4cc5c(NCc6ccccc6Cl)ncnc5[nH]4)cc3)CC2)c1 [compound 110] | C (>80% EGFR protein remaining after 72 hours of incubation with the test compound at a concentration of 300 nM) | C (>80% EGFR protein remaining after 72 hours of incubation with the test compound at a concentration of 300 nM) | 12000 nM | 770 nM | 8600 nM | 1800 nM | – | –
10 | COc1cc2c(Oc3ccc(N(C(=O)C4(C(N)=O)CC4)c4ccc(F)cc4)cc3F)ccnc2cc1OCCCOCCCOCCC(=O)N[C@H](C(=O)N1C[C@@H](O)C[C@H]1C(=O)NCc1ccc(-c2scnc2C)cc1)C(C)(C)C [Example 351, N-(3-Fluoro-4-((7-(3-(3-(3-(((S)-1-((2S,4S)-4-hydroxy-2-((4-(4-methylthiazol-5-yl)benzyl)carbamoyl)-pyrrolidin-1-yl)-3,3-dimethyl-1-oxobutan-2-yl)amino)-3-oxopropoxy)propoxy)propoxy)-6-methoxyquinolin-4-yl)oxy)phenyl)-N-(4-fluorophenyl)cyclopropane-1,1-dicarboxamide] | – | C (>80% EGFR protein remaining after 72 hours of incubation with the test compound at a concentration of 300 nM) | – | – | – | – | – | –
11 | Cc1ncsc1-c1ccc(CNC(=O)[C@@H]2C[C@@H](O)CN2C(=O)[C@@H](NC(=O)CO[C@H]2C[C@H](Oc3ccc(N4CCN(CCOCc5nc6cnc(Nc7ccnc(-c8cnn(S(=O)(=O)C9CC9)c8)n7)cc6n5C(C)C)CC4)cc3)C2)C(C)(C)C)cc1 [compound 304] | – | C (>80% EGFR protein remaining after 72 hours of incubation with the test compound at a concentration of 300 nM) | 17 nM | > 30000 nM | 92 nM | – | A (≤50% EGFR protein remaining after 72 hours of incubation with the test compound at a concentration between 300 nM and 10 nM) | –
